In US9428487B2, “Heteroaromatic amides and thioamides as pesticides” (Bayer Intellectual Property GmbH, priority 2008, dated 2016) one finds pest or weed control and chromatographic logP data, which are given here for 43 compounds.

Data set [1] has as its system green peach aphid (Myzus persicae). The experiment in a line: Myzus test. Type of data set: in vivo. To be noted: read-out: efficacy (aphids killed). How it is done: • Solvent: 78.0 parts by weight of acetone • 1.5 parts by weight of dimethylformamide • Emulsifier: 0.5 part by weight of alkylaryl polyglycol ether
To produce an appropriate active ingredient formulation, 1 part by weight of active ingredient is mixed with the amounts of solvent and emulsifier specified and the concentrate is diluted to the desired concentration with emulsifier-containing water.
Chinese cabbage leaf slices (Brassica pekinensis) infested by all stages of the green peach aphid (Myzus persicae) are sprayed with an active ingredient formulation of the desired concentration.
After the desired time, the efficacy in % is determined 100% means that all aphids have been killed; 0% means that no aphids have been killed.

The nature of data set [2]: Determination of log P values by HPLC on reversed-phase column (formic acid method). The class given is physicochemical. As to conditions: reversed-phase C 18, acidic range (pH 3.4), formic acid eluents, 55° C., read-out: logP (HCOOH). How it is done: 1) Description of Method for Determining the Log P Values (Formic Acid Method)
The log P values reported in the table were determined according to EEC-Directive 79/831 Annex V.A8 by HPLC (High Performance Liquid Chromatography) on a reversed-phase column (C 18). […]
Eluent A: acetonitrile+1 ml of formic acid/liter. Eluent B: water+0.9 ml of formic acid/liter.
Gradient: from 10% eluent A/90% eluent B to 95% eluent A/5% eluent B in 4.25 min
The calibration was effected with unbranched alkan-2-ones (with 3 to 16 carbon atoms), whose log P values are known (determination of the log P values on the basis of the retention times by linear interpolation between two successive alkanones). The lambda-max values were determined with reference to the UV spectra from 200 nm to 400 nm in the maxima of the chromatographic signals.

The mark [3] stands for this setting: application rate 500 g/ha, spray on Chinese cabbage leaf slices.
[4] abbreviates: reversed-phase HPLC column (C 18), pH 3.4, HPLC.

Where two headings read alike, the source gives them in different places.

As for `Cc1nc(-c2cccnc2)sc1C(=O)NC(C)CC(F)(F)F` (centres unmarked) [Compound 86], the pest or weed control at 500 g/ha in data set [1] (setting [3]) was at least 70%. Further, the chromatographic logP in data set [2] (setting [4]) was determined as 1.94.
In the same order, the values of `Cc1nc(-c2cccnc2)sc1C(=O)NC(C)c1ccccn1` (centres unmarked) [Compound 87] are at least 70% and 1.1.
In the case of `CCOC1(NC(=O)c2cnc(-c3cccnc3)s2)CC1` [Compound 88], in data set [1] (setting [3]), the pest or weed control at 500 g/ha was at least 70%. Also, the chromatographic logP in data set [2] (setting [4]) was found to be 1.31.
Regarding `CCC(=O)N(CC(F)(F)F)C(=O)c1sc(-c2cccnc2)nc1C` [Compound 89], in data set [1] (setting [3]), the pest or weed control at 500 g/ha is at least 70%. Moreover, the chromatographic logP in data set [2] (setting [4]) was found to be 2.61.
The corresponding values for `Cc1nc(-c2cccnc2)sc1C(=O)NCc1ccccn1` [Compound 90] are at least 70% and 0.78.
The corresponding values for `Cc1nc(-c2cccnc2)sc1C(=O)N(C)Cc1ncccn1` [Compound 91] are at least 70% and 1.02.
In the same order, the values of `Cc1nc(-c2cccnc2)sc1C(=O)NCC1OCCCO1` [Compound 92] are at least 70% and 1.27.
For the compound `Cc1nc(-c2cccnc2)sc1C(=O)N(C)Cc1ccccn1` [Compound 93], the pest or weed control at 500 g/ha in data set [1] (setting [3]) was at least 70%. Also, in data set [2] (setting [4]), the chromatographic logP came to 1.19.
The corresponding values for `Cc1nc(-c2cccnc2)sc1C(=O)NC(C)(C#N)C1CC1` (centres unmarked) [Compound 94] are at least 70% and 1.76.
On to `Cc1cc(C)nc(CNC(=O)c2sc(-c3cccnc3)nc2C)n1` [Compound 95], for which the pest or weed control at 500 g/ha in data set [1] (setting [3]) was at least 70%. The chromatographic logP in data set [2] (setting [4]) is 1.24.
The corresponding values for `Cc1nc(-c2cccnc2)sc1C(=O)NCC(F)(Cl)Cl` [Compound 96] are at least 70% and 1.98.
In the case of `Cc1nc(-c2cccnc2)sc1C(=O)NC(C)CF` (centres unmarked) [Compound 97], the pest or weed control at 500 g/ha in data set [1] (setting [3]) is at least 70%. In addition, in data set [2] (setting [4]), the chromatographic logP amounted to 1.42.
The corresponding values for `Cc1cc(CNC(=O)c2sc(-c3cccnc3)nc2C)no1` [Compound 98] are at least 70% and 1.45.
In the same order, the values of `COCN(Cc1ncccn1)C(=O)c1sc(-c2cccnc2)nc1C` [Compound 99] are at least 70% and 1.28.
For `Cc1nc(-c2cccnc2)sc1C(=O)NCC(Cl)(Cl)Cl` [Compound 100], the pest or weed control at 500 g/ha in data set [1] (setting [3]) was at least 70%. For the same compound, in data set [2] (setting [4]), the chromatographic logP worked out at 2.17.
With `COC(CNC(=O)c1sc(-c2cccnc2)nc1C)OC` [Compound 101], the pest or weed control at 500 g/ha in data set [1] (setting [3]) was at least 70%. In addition, the chromatographic logP in data set [2] (setting [4]) was 1.33.
With `CN(Cc1ncccn1)C(=O)c1cnc(-c2cccnc2)s1` [Compound 102], the pest or weed control at 500 g/ha in data set [1] (setting [3]) is at least 70%. Also, the chromatographic logP in data set [2] (setting [4]) is 1.3.
Consider `Cc1nc(-c2cccnc2)sc1C(=O)NCC1CCCO1` (centres unmarked) [Compound 103], for which the pest or weed control at 500 g/ha in data set [1] (setting [3]) was at least 70%. In addition, in data set [2] (setting [4]), the chromatographic logP worked out at 1.4.
The corresponding values for `Cc1nc(-c2cccnc2)sc1C(=O)NCC1CCCCO1` (centres unmarked) [Compound 104] are at least 70% and 1.64.
`Cc1cc(CNC(=O)c2sc(-c3cccnc3)nc2C)n(C)n1` [Compound 105]: the pest or weed control at 500 g/ha in data set [1] (setting [3]) was at least 70%. Moreover, in data set [2] (setting [4]), the chromatographic logP came to 1.23.
Regarding `O=C(NCc1ccccn1)c1cnc(-c2cccnc2)s1` [Compound 106], in data set [1] (setting [3]), the pest or weed control at 500 g/ha was at least 70%. For the same compound, the chromatographic logP in data set [2] (setting [4]) stood at 0.61.
With `Cc1nccc(CNC(=O)c2sc(-c3cccnc3)nc2C)n1` [Compound 107], the pest or weed control at 500 g/ha in data set [1] (setting [3]) was at least 70%. For the same compound, the chromatographic logP in data set [2] (setting [4]) was 1.03.
In the same order, the values of `CCOC(CNC(=O)c1sc(-c2cccnc2)nc1C)OCC` [Compound 108] are at least 70% and 1.78.
In the same order, the values of `COCN(C(=O)c1sc(-c2cccnc2)nc1C)C(C)C(=O)OC` (centres unmarked) [Compound 109] are at least 70% and 1.61.
In the same order, the values of `Cc1nc(-c2cccnc2)sc1C(=O)NC1CCS(=O)(=O)C1` (centres unmarked) [Compound 110] are at least 70% and 1.22.
Regarding `Cc1nc(-c2cccnc2)sc1C(=O)N(C)C(C)c1ccccn1` (centres unmarked) [Compound 111], in data set [1] (setting [3]), the pest or weed control at 500 g/ha is at least 70%. In data set [2] (setting [4]), the chromatographic logP came to 1.45.
In the same order, the values of `O=C(NCc1ncccn1)c1cnc(-c2cccnc2)s1` [Compound 112] are at least 70% and 0.81.
On to `COCN(CCF)C(=O)c1sc(-c2cccnc2)nc1C` [Compound 113], for which the pest or weed control at 500 g/ha in data set [1] (setting [3]) was at least 70%. Also, in data set [2] (setting [4]), the chromatographic logP is 1.46.
On to `Cc1nc(-c2cccnc2)sc1C(=O)NC(C)(C)CS(C)(=O)=O` [Compound 114], for which the pest or weed control at 500 g/ha in data set [1] (setting [3]) was at least 70%. The chromatographic logP in data set [2] (setting [4]) stood at 1.28.
Consider `Cc1nc(-c2cccnc2)sc1C(=O)NCc1ccc(Cl)nc1` [Compound 115], for which, in data set [1] (setting [3]), the pest or weed control at 500 g/ha is at least 70%. Moreover, the chromatographic logP in data set [2] (setting [4]) came to 1.71.
As to `COC(=O)N(CC(F)(F)F)C(=O)c1sc(-c2cccnc2)nc1C` [Compound 116], the pest or weed control at 500 g/ha in data set [1] (in Brassica rapa) is at least 70%. Also, the chromatographic logP in data set [2] (HPLC) was 2.46.
In the case of `C#CCOC(=O)N(CC(F)(F)F)C(=O)c1sc(-c2cccnc2)nc1C` [Compound 117], the pest or weed control at 500 g/ha in data set [1] (in Brassica rapa) was at least 70%. For the same compound, the chromatographic logP in data set [2] (HPLC) came out at 2.63.
For `O=C(N[C@H]1C[C@@H]1F)c1cnc(-c2cccnc2)s1` [Compound 118], the pest or weed control at 500 g/ha in data set [1] (setting [3]) was at least 70%. Moreover, the chromatographic logP in data set [2] (setting [4]) amounted to 1.14.
Regarding `COCN(Cc1cc(C)on1)C(=O)c1sc(-c2cccnc2)nc1C` [Compound 119], the pest or weed control at 500 g/ha in data set [1] (setting [3]) is at least 70%. Further, the chromatographic logP in data set [2] (setting [4]) is 1.71.
Consider `CCOC(=O)NC(C)(C)CNC(=O)c1sc(-c2cccnc2)nc1C` [Compound 120], for which the pest or weed control at 500 g/ha in data set [1] (in Brassica rapa) is at least 70%. The chromatographic logP in data set [2] (HPLC) turned out to be 1.75.
Turning to `Cc1nc(-c2cccnc2)sc1C(=O)NCC(F)(F)Br` [Compound 121], the pest or weed control at 500 g/ha in data set [1] (setting [3]) is at least 70%. The chromatographic logP in data set [2] (setting [4]) stood at 1.98.
The corresponding values for `C=CC[n+]1cccc(-c2nc(C)c(C(=O)NCC(F)(F)F)s2)c1` [Compound 122] are at least 70% and 1.13.
Consider `Cc1nc(-c2cccnc2)sc1C(=O)NC1CCC(C(F)(F)F)CC1` (centres unmarked) [Compound 123], for which the pest or weed control at 500 g/ha in data set [1] (setting [3]) was at least 70%. For the same compound, the chromatographic logP in data set [2] (setting [4]) came to 2.42.
Consider `Cc1nc(-c2cccnc2)sc1C(=O)N(CCCF)CC(F)(F)F` [Compound 124], for which the pest or weed control at 500 g/ha in data set [1] (setting [3]) was at least 70%. Moreover, the chromatographic logP in data set [2] (setting [4]) amounted to 2.11.
Turning to `Cc1nc(-c2cccnc2)sc1C(=O)NCC(C)Cl` (centres unmarked) [Compound 125], the pest or weed control at 500 g/ha in data set [1] (setting [3]) was at least 70%. For the same compound, the chromatographic logP in data set [2] (setting [4]) is 1.69.
For `Cc1nc(-c2cccnc2)sc1C(=O)NCc1ccncn1` [Compound 126], the pest or weed control at 500 g/ha in data set [1] (setting [3]) is at least 70%. Besides, the chromatographic logP in data set [2] (setting [4]) was found to be 0.9.
In the case of `CN(Cc1cccnc1)C(=O)c1cnc(-c2cccnc2)s1` [Compound 127], the pest or weed control at 500 g/ha in data set [1] (setting [3]) was at least 70%. The chromatographic logP in data set [2] (setting [4]) was 0.98.
The corresponding values for `Cc1nc(-c2cccnc2)sc1C(=O)NNc1ncccn1` [Compound 128] are at least 70% and 0.75.
